In ChEMBL document CHEMBL1147307, “Cytotoxic macrolides from a cultured marine dinoflagellate of the genus Amphidinium” (J Nat Prod, 1989):
Values after ≈ are worked out from the molar mass of the structure shown.

Test system: L1210
Assay: Cytotoxicity against mouse L1210 cells
Format: functional, cell-based

`C=C1/C=C(\C)C(C)(O)CC(O)CC(=O)C(O)C(O)C(C)CC(C)OC(=O)/C(C)=C/CC/C=C/C(OC)C(O)CC(C)C1` (stereo unspecified) gave an IC50 of 0.081 µg/mL (≈ 0.136 µM).
